Assay results reported in patent publication US12473304B2, “Heterocyclic PAD4 inhibitors” (BRISTOL-MYERS SQUIBB COMPANY, priority 2020, dated 2025).

Each compound was assayed against human PAD4 (hPAD4) (Homo sapiens (Human), UniProt Q9UM07) (assay: RFMS Human PAD4 Functional Assay 1). Settings: RFMS assay 1; 5 nM hPAD4, 250 μM BAEE substrate, 50 μM calcium, 37° C.
Type: biochemical
Outline: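 Recombinant hPAD4 (5 nM) was preincubated with compound (top 50 μM, 0.5% DMSO) for 30 min at 37 °C, then reacted with 250 μM BAEE for 90 min at 37 °C in pH 7.5 HEPES buffer with 50 μM calcium and 5 μM TPEN. Product was derivatized with phenyl glyoxal and quantified by RapidFire MS.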

Chain of human PAD4 (hPAD4) (Q9UM07 whole entry): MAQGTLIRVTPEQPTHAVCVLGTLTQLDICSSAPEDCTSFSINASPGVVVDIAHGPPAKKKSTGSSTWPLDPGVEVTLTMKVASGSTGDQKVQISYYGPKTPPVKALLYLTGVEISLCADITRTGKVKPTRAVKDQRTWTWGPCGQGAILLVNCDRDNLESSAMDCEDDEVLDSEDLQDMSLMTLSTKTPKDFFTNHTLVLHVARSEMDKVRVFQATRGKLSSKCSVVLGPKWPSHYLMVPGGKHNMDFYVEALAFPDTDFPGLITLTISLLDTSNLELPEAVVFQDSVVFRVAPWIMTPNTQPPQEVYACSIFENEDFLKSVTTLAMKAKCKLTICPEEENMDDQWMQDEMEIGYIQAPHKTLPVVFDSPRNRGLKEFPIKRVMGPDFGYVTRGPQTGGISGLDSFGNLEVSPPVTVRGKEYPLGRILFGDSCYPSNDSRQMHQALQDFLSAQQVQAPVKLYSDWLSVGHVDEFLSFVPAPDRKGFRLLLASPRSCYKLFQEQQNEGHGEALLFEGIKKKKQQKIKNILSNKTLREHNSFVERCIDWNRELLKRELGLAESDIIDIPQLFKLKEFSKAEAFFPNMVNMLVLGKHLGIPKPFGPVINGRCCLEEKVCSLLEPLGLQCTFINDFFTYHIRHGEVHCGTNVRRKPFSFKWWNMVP

IC50	SMILES
108 nM	COc1cc(C(=O)N2CC3CCC2[C@@H]3N)cn2nc(-c3cc4ccc(-c5ccc6c(c5)C(=O)NC6)cc4n3CC3CC3)c(C)c12 (stereo partly drawn) [Example 23, 6-(2-(6-((7R)-7-Amino-2-azabicyclo[2.2.1]heptane-2-carbonyl)-4-methoxy-3-methylpyrazolo[1,5-a]pyridin-2-yl)-1-(cyclopropylmethyl)-1H-indol-6-yl)isoindolin-1-one]
31 nM	COc1cc(C(=O)N2CC3CCC2[C@@H]3N)cn2nc(-c3cc4ccc(-c5ccc6c(c5)CNC6=O)cc4n3CC3CC3)c(C)c12 (stereo partly drawn) [Example 24, 5-(2-(6-((7R)-7-Amino-2-azabicyclo[2.2.1]heptane-2-carbonyl)-4-methoxy-3-methylpyrazolo[1,5-a]pyridin-2-yl)-1-(cyclopropylmethyl)-1H-indol-6-yl)isoindolin-1-one]
17 nM	COc1cc(C(=O)N2CC3CCC2[C@@H]3N)cn2nc(-c3cc4ccc(-c5ccn6c(C)nnc6c5)cc4n3CC3CC3)c(C)c12 (stereo partly drawn) [Example 25, ((7R)-7-Amino-2-azabicyclo[2.2.1]heptan-2-yl)(2-(1-(cyclopropylmethyl)-6-(3-methyl-[1,2,4]triazolo[4,3-a]pyridin-7-yl)-1H-indol-2-yl)-4-methoxy-3-methylpyrazolo[1,5-a]pyridin-6-yl)methanone]
449 nM	COc1cc(C(=O)N2CC3CCC2[C@@H]3N)cn2nc(-c3cc4ccc(-c5ccc(OC(F)F)cc5)cc4n3CC3CC3)c(C)c12 (stereo partly drawn) [Example 26, ((7R)-7-Amino-2-azabicyclo[2.2.1]heptan-2-yl)(2-(1-(cyclopropylmethyl)-6-(4-(difluoromethoxy)phenyl)-1H-indol-2-yl)-4-methoxy-3-methylpyrazolo[1,5-a]pyridin-6-yl)methanone]
22 nM	COc1cc(C(=O)N2CC3CCC2[C@@H]3N)cn2nc(-c3cc4ccc(C)cc4n3CC3CC3)c(C)c12 (stereo partly drawn) [Example 27, ((7R)-7-Amino-2-azabicyclo[2.2.1]heptan-2-yl)(2-(1-(cyclopropylmethyl)-6-methyl-1H-indol-2-yl)-4-methoxy-3-methylpyrazolo[1,5-a]pyridin-6-yl)methanone]
1020 nM	COc1cc(C(=O)N2C[C@H](N)C[C@@H](F)C2)cn2nc(-c3cc4ccc(-c5ccc6c(c5)C(=O)NC6)cc4n3CC3CC3)c(C)c12 [Example 29, 6-(2-(6-((3R,5R)-3-Amino-5-fluoropiperidine-1-carbonyl)-4-methoxy-3-methylpyrazolo[1,5-a]pyridin-2-yl)-1-(cyclopropylmethyl)-1H-indol-6-yl)isoindolin-1-one]
84 nM	COc1cc(C(=O)N2C[C@H](N)C[C@@H](F)C2)cn2nc(-c3cc4ccc(-c5ccc6c(c5)CNC6=O)cc4n3CC3CC3)c(C)c12 [Example 30, 5-(2-(6-((3R,5R)-3-Amino-5-fluoropiperidine-1-carbonyl)-4-methoxy-3-methylpyrazolo[1,5-a]pyridin-2-yl)-1-(cyclopropylmethyl)-1H-indol-6-yl)isoindolin-1-one]
65 nM	COc1cc(C(=O)N2C[C@H](N)C[C@@H](F)C2)cn2nc(-c3cc4ccc(-c5ccn6c(C)nnc6c5)cc4n3CC3CC3)c(C)c12 [Example 31, ((3R,5R)-3-Amino-5-fluoropiperidin-1-yl)(2-(1-(cyclopropylmethyl)-6-(3-methyl-[1,2,4]triazolo[4,3-a]pyridin-7-yl)-1H-indol-2-yl)-4-methoxy-3-methylpyrazolo[1,5-a]pyridin-6-yl)methanone]
414 nM	COc1cc(C(=O)N2C[C@H](N)C[C@@H](F)C2)cn2nc(-c3cc4ccc(-c5cccc(O)c5F)cc4n3CC3CC3)c(C)c12 [Example 32, ((3R,5R)-3-Amino-5-fluoropiperidin-1-yl)(2-(1-(cyclopropylmethyl)-6-(2-fluoro-3-hydroxyphenyl)-1H-indol-2-yl)-4-methoxy-3-methylpyrazolo[1,5-a]pyridin-6-yl)methanone]
534 nM	COCC1CN(c2ccc3cc(-c4nn5cc(C(=O)N6C[C@H](N)C[C@@H](F)C6)cc(OC)c5c4C)n(CC4CC4)c3c2)C1 [Example 33, ((3R,5R)-3-Amino-5-fluoropiperidin-1-yl)(2-(1-(cyclopropylmethyl)-6-(3-(methoxymethyl)-azetidin-1-yl)-1H-indol-2-yl)-4-methoxy-3-methylpyrazolo[1,5-a]pyridin-6-yl)methanone]
42 nM	COc1cc(C(=O)N2C[C@H](N)C[C@@H](F)C2)cn2nc(-c3cc4ccc(N5C[C@H](N)C[C@@H](F)C5)cc4n3CC3CC3)c(C)c12 [Example 34, ((3R,5R)-3-Amino-5-fluoropiperidin-1-yl)(2-(6-((3R,5R)-3-amino-5-fluoropiperidin-1-yl)-1-(cyclopropylmethyl)-1H-indol-2-yl)-4-methoxy-3-methylpyrazolo[1,5-a]pyridin-6-yl)methanone]
139 nM	COc1cc(C(=O)N2C[C@H](N)C[C@@H](F)C2)cn2nc(-c3cc4ccc(N5CCC(OC)CC5)cc4n3CC3CC3)c(C)c12 [Example 35, ((3R,5R)-3-Amino-5-fluoropiperidin-1-yl)(2-(1-(cyclopropylmethyl)-6-(4-methoxypiperidin-1-yl)-1H-indol-2-yl)-4-methoxy-3-methylpyrazolo[1,5-a]pyridin-6-yl)methanone]
782 nM	COc1cc(C(=O)N2C[C@H](N)C[C@@H](F)C2)cn2nc(-c3cc4ccc(NC[C@@H](F)C(C)(C)O)cc4n3CC3CC3)c(C)c12 [Example 36, ((3R,5R)-3-Amino-5-fluoropiperidin-1-yl)(2-(1-(cyclopropylmethyl)-6-(((R)-2-fluoro-3-hydroxy-3-methylbutyl)amino)-1H-indol-2-yl)-4-methoxy-3-methylpyrazolo[1,5-a]pyridin-6-yl)methanone]
3610 nM	COc1cc(C(=O)N2C[C@H](N)C[C@@H](F)C2)cn2nc(-c3cc4ccc(N5CC(F)(CO)C5)cc4n3CC3CC3)c(C)c12 [Example 37, ((3R,5R)-3-Amino-5-fluoropiperidin-1-yl)(2-(1-(cyclopropylmethyl)-6-(3-fluoro-3-(hydroxymethyl)azetidin-1-yl)-1H-indol-2-yl)-4-methoxy-3-methylpyrazolo[1,5-a]pyridin-6-yl)methanone]
158 nM	Cc1c(-c2cc3cccnc3n2CC2CC2)nn2cc(C(=O)N3CC4CCC3[C@@H]4N)cc(F)c12 (stereo partly drawn) [Example 38, ((7R)-7-Amino-2-azabicyclo[2.2.1]heptan-2-yl)(2-(1-(cyclopropylmethyl)-1H-pyrrolo[2,3-b]pyridin-2-yl)-4-fluoro-3-methylpyrazolo[1,5-a]pyridin-6-yl)methanone]
87 nM	Cc1c(-c2cc3ccc(Cl)nc3n2CC2CC2)nn2cc(C(=O)N3CC4CCC3[C@@H]4N)cc(F)c12 (stereo partly drawn) [Example 39, ((7R)-7-Amino-2-azabicyclo[2.2.1]heptan-2-yl)(2-(6-chloro-1-(cyclopropylmethyl)-1H-pyrrolo[2,3-b]pyridin-2-yl)-4-fluoro-3-methylpyrazolo[1,5-a]pyridin-6-yl)methanone]
25 nM	Cc1ccc2cc(-c3nn4cc(C(=O)N5CC6CCC5[C@@H]6N)cc(F)c4c3C)n(CC3CC3)c2n1 (stereo partly drawn) [Example 40, 3((7R)-7-Amino-2-azabicyclo[2.2.1]heptan-2-yl)(2-(1-(cyclopropylmethyl)-6-methyl-1H-pyrrolo[2,3-b]pyridin-2-yl)-4-fluoro-3-methylpyrazolo[1,5-a]pyridin-6-yl)methanone]
